# Measured values reported in the supplement of paper PMC10307832.
# Columns and labels:
# Test in all cases: relative viability (nuclei count vs DMSO), 5 days (fraction); higher = more cells survive
# Linsitinib + Phenformin = compound: C[C@]1(O)C[C@@H](c2nc(-c3ccc4ccc(-c5ccccc5)nc4c3)c3c(N)nccn32)C1 [Linsitinib] + N=C(N)NC(=N)NCCc1ccccc1 [Phenformin] (partner 250 µM)
# In short: (§1)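 For relative viability, nuclei counts in treated wells were divided by those in vehicle wells. Lung cancer cell lines had been pin-tool dosed in 1536-well plates the day after seeding and cultured for 5 days, then fixed and stained in one step (final 0.05% Triton X-100, 1% formaldehyde, 1 ug/ml Hoechst) and imaged at 4×. Doses were one drug alone or a fixed anchor-drug dose plus five library-drug doses (not always all listed) in √10 steps, and values are duplicate-plate medians.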
# Ispinesib + Lapatinib = compound: Cc1ccc(C(=O)N(CCCN)[C@@H](c2nc3cc(Cl)ccc3c(=O)n2Cc2ccccc2)C(C)C)cc1 [Ispinesib] + CS(=O)(=O)CCNCc1ccc(-c2ccc3ncnc(Nc4ccc(OCc5cccc(F)c5)c(Cl)c4)c3c2)o1 [Lapatinib] (partner 2 µM)
# In short: as §1
# Linsitinib + AZD7762 = compound: C[C@]1(O)C[C@@H](c2nc(-c3ccc4ccc(-c5ccccc5)nc4c3)c3c(N)nccn32)C1 [Linsitinib] + NC(=O)Nc1cc(-c2cccc(F)c2)sc1C(=O)N[C@H]1CCCNC1 [AZD7762] (partner 0.2 µM)
# In short: as §1
# Ispinesib + Pemetrexed = compound: Cc1ccc(C(=O)N(CCCN)[C@@H](c2nc3cc(Cl)ccc3c(=O)n2Cc2ccccc2)C(C)C)cc1 [Ispinesib] + Nc1nc2[nH]cc(CCc3ccc(C(=O)N[C@@H](CCC(=O)O)C(=O)O)cc3)c2c(=O)[nH]1 [Pemetrexed] (partner 0.2 µM)
# In short: as §1
Cell Line,relative viability (Linsitinib + Phenformin; first compound 0.01 µM),relative viability (Linsitinib + Phenformin; first compound 0.03162 µM),relative viability (Linsitinib + Phenformin; first compound 0.1 µM),relative viability (Linsitinib + Phenformin; first compound 0.3162 µM),relative viability (Linsitinib + Phenformin; first compound 1 µM),relative viability (Ispinesib + Lapatinib; first compound 0.001 µM),relative viability (Ispinesib + Lapatinib; first compound 0.003162 µM),relative viability (Ispinesib + Lapatinib; first compound 0.01 µM),relative viability (Ispinesib + Lapatinib; first compound 0.03162 µM),relative viability (Ispinesib + Lapatinib; first compound 0.1 µM),relative viability (Linsitinib + AZD7762; first compound 0.01 µM),relative viability (Linsitinib + AZD7762; first compound 0.03162 µM),relative viability (Linsitinib + AZD7762; first compound 0.1 µM),relative viability (Linsitinib + AZD7762; first compound 0.3162 µM),relative viability (Linsitinib + AZD7762; first compound 1 µM),relative viability (Ispinesib + Pemetrexed; first compound 0.001 µM),relative viability (Ispinesib + Pemetrexed; first compound 0.003162 µM),relative viability (Ispinesib + Pemetrexed; first compound 0.01 µM),relative viability (Ispinesib + Pemetrexed; first compound 0.03162 µM),relative viability (Ispinesib + Pemetrexed; first compound 0.1 µM)
PC-14,0.623,0.523,0.58,0.533,0.395,0.331,0.397,0.363,0.421,0.125,0.296,0.307,0.34,0.305,0.27,0.132,0.139,0.0661,0.0425,0.0577
H3255,0.342,0.354,0.392,0.366,0.375,0.214,0.171,0.205,0.176,0.236,0.7,0.884,0.813,0.69,0.806,0.575,0.604,0.515,0.525,0.39
NCI-H2126,0.531,0.512,0.484,0.338,0.319,0.719,0.804,0.846,0.781,0.534,0.972,0.997,1.05,0.871,0.887,0.672,0.669,0.768,0.647,0.303
HCC-366,0.612,0.604,0.598,0.574,0.377,1.03,1.12,1.33,0.0151,0.0387,0.261,0.228,0.301,0.361,0.12,0.18,0.189,0.176,0.153,0.0222
LU99A,0.919,0.848,0.781,0.475,0.555,0.992,1.11,1.14,0.192,0.201,0.285,0.435,0.371,,0.196,0.188,0.21,0.163,0.163,0.141
HOP-62,0.663,0.718,0.677,,0.61,1.11,1.07,1.15,1.11,0.231,0.583,0.577,0.769,,0.298,0.319,0.327,0.34,0.26,0.117
HCC-15,0.512,0.46,0.433,,0.292,0.91,0.983,1.03,0.402,0.14,1.07,1.15,1.16,0.839,1.11,0.241,0.258,0.23,0.221,0.144
HARA,0.427,0.469,0.435,,0.4,0.8,0.856,0.987,0.151,0.144,0.355,0.237,0.344,,0.179,0.278,0.203,0.209,0.187,0.171
NCI-H1355,0.452,0.447,0.393,0.32,0.304,1.09,0.93,1.22,0.644,0.3,0.66,0.604,0.633,0.602,0.329,1.13,1.09,1.16,0.809,0.259
NCI-H838,0.528,0.487,0.462,,0.395,1.08,1.09,1.31,0.183,0.26,0.933,0.85,0.903,0.713,0.77,0.255,0.248,0.248,0.252,0.148
HCC-44,0.181,0.232,0.174,0.143,0.136,1.05,1.01,1.37,0.658,0.158,1.01,0.962,0.995,0.855,0.925,0.682,0.663,0.657,0.496,0.391
LK-2,0.41,0.498,0.515,0.201,0.187,1.07,1.07,0.908,0.681,0.313,0.295,0.482,0.245,0.179,0.154,0.231,0.29,0.294,0.269,0.124
HCC-827,0.423,0.433,0.418,,0.385,0.194,0.194,0.181,0.189,0.0607,0.151,0.223,0.207,,0.221,0.25,0.259,0.274,0.248,0.235
EPLC-272H,0.369,0.335,,,0.312,0.919,1.11,1.02,0.561,0.145,0.186,0.22,0.221,,0.334,0.31,0.327,0.193,0.265,0.227
NCI-H358,0.304,0.273,0.306,0.228,0.207,0.475,0.421,0.473,0.345,0.215,0.668,0.473,0.563,0.366,0.321,0.176,0.146,0.17,0.169,0.135
NCI-H1395,0.442,0.462,0.454,0.468,0.423,1.1,1.11,0.779,0.545,0.33,0.373,,0.394,0.477,0.38,0.986,1.04,0.725,0.432,0.377
NCI-H2085,0.763,0.723,0.727,0.663,0.574,0.721,0.857,0.81,0.444,0.314,0.916,0.837,1.04,0.896,0.939,0.946,0.905,0.943,0.917,0.361

Cell Line,relative viability (Linsitinib + Phenformin; first compound 0.01 µM),relative viability (Linsitinib + Phenformin; first compound 0.03162 µM),relative viability (Linsitinib + Phenformin; first compound 0.1 µM),relative viability (Linsitinib + Phenformin; first compound 0.3162 µM),relative viability (Linsitinib + Phenformin; first compound 1 µM),relative viability (Ispinesib + Lapatinib; first compound 0.001 µM),relative viability (Ispinesib + Lapatinib; first compound 0.003162 µM),relative viability (Ispinesib + Lapatinib; first compound 0.01 µM),relative viability (Ispinesib + Lapatinib; first compound 0.03162 µM),relative viability (Ispinesib + Lapatinib; first compound 0.1 µM),relative viability (Linsitinib + AZD7762; first compound 0.01 µM),relative viability (Linsitinib + AZD7762; first compound 0.03162 µM),relative viability (Linsitinib + AZD7762; first compound 0.1 µM),relative viability (Linsitinib + AZD7762; first compound 0.3162 µM),relative viability (Linsitinib + AZD7762; first compound 1 µM),relative viability (Ispinesib + Pemetrexed; first compound 0.001 µM),relative viability (Ispinesib + Pemetrexed; first compound 0.003162 µM),relative viability (Ispinesib + Pemetrexed; first compound 0.01 µM),relative viability (Ispinesib + Pemetrexed; first compound 0.03162 µM),relative viability (Ispinesib + Pemetrexed; first compound 0.1 µM)
NCI-H2087,0.498,0.54,0.417,0.222,0.365,0.92,1.04,1.35,0.293,0.182,1.15,1.23,1.38,1.34,1.13,0.667,0.715,0.66,0.635,0.149
NCI-H322M,0.832,0.765,0.814,0.545,0.552,0.654,0.585,0.616,0.438,0.319,0.575,0.411,0.485,0.49,0.414,0.665,0.616,0.585,0.525,0.425
NCI-H1734,0.449,0.392,0.367,0.363,0.315,1.16,1.11,1.4,0.408,0.296,0.61,0.534,0.579,0.794,0.363,0.414,0.415,0.395,0.336,0.248
EKVX,0.278,0.21,0.235,0.216,0.224,0.208,0.206,0.204,0.223,0.131,,0.662,0.717,0.707,0.631,0.41,,0.416,0.337,0.325
NCI-H596,0.721,0.638,0.678,0.774,0.833,0.978,1.18,1.02,0.897,0.402,1.19,1.06,1,1.14,0.92,0.502,0.51,0.578,0.52,0.304
NCI-H1975,0.396,0.417,0.413,0.38,0.396,0.931,0.907,0.71,0.302,0.179,0.697,0.673,0.685,0.685,0.562,0.328,0.327,0.322,0.277,0.155
NCI-H2170,0.432,0.379,0.364,0.24,0.348,0.265,0.252,0.269,0.182,0.214,0.918,0.959,0.768,,0.68,0.357,0.266,0.256,0.205,0.158
NCI-H1666,0.539,0.394,0.534,0.314,0.511,0.703,0.801,0.596,0.279,0.292,0.704,0.834,0.828,0.645,0.597,0.89,0.786,0.883,0.91,0.817
PC-3 [JPC-3],0.464,0.48,0.515,0.436,0.45,0.456,0.486,0.439,0.413,0.318,0.784,0.758,0.846,0.495,0.597,1.29,1.39,1.02,0.674,0.384
NCI-H1755,0.66,0.64,0.629,0.372,0.503,1.02,1.16,1.09,0.41,0.203,0.454,0.421,0.531,0.657,0.363,0.486,0.439,0.435,0.496,0.325
RERF-LC-KJ,0.408,0.368,0.463,0.425,0.409,1.02,0.835,0.931,0.831,0.304,0.254,1.02,0.905,0.419,0.71,0.43,0.516,0.443,0.309,0.202
NCI-H647,0.524,0.464,0.537,,0.438,1.28,0.693,0.481,0.106,0.114,0.467,0.504,0.493,0.212,0.331,0.165,0.161,0.124,0.118,0.0916
BEN,0.28,0.24,0.245,,0.292,0.906,0.892,0.7,0.357,0.247,0.563,0.771,0.617,0.742,0.677,0.826,0.953,0.797,0.471,0.278
201T,0.405,0.475,0.434,0.449,0.338,1.06,1.07,1.1,0.916,0.431,0.554,0.59,0.675,0.509,0.612,0.308,0.334,0.328,0.32,0.264
LC-2-ad,0.606,0.572,0.558,0.332,0.353,0.949,1.02,1.07,0.504,0.114,0.862,0.816,0.814,0.805,0.54,0.288,0.259,0.262,0.23,0.149
LCLC-97TM1,0.41,0.432,0.43,0.194,0.205,0.998,1.18,0.858,0.673,0.112,0.299,0.271,0.317,0.162,0.271,0.186,0.168,0.173,0.167,0.0653
